Assay results published in patent US9833497B2, “Human originated EGF domain proteins and use of the same” (CHENGDU SOURCEBIO LIMITED-LIABILITY COMPANY, priority 2013, dated 2017).

Experiments:
Type in all cases: cell-based
Moraxella catarrhalis = test: MIC against Gram-negative bacteria: Moraxella catarrhalis; conditions: 5×10^5 CFU/mL; for MIC against M. catarrhalis: Moraxella catarrhalis
Outline: (§1)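 MIC, the lowest recombinant protein concentration giving no bacterial growth, found by two-fold serial dilution of human EGF-domain proteins in triplicate. Inoculum 5×10^5 CFU/mL in LB from cultures at McFarland 0.5; plates incubated at 37° C, 175 rpm shaking.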

Enterobacter cloacae = test: MIC against Gram-negative bacteria: Enterobacter cloacae; conditions: 5×10^5 CFU/mL; for MIC against E. cloacae: Enterobacter cloacae
Outline: as §1

Serratia marcescens = test: MIC against Gram-negative bacteria: Serratia marcescens; conditions: 5×10^5 CFU/mL; for MIC against S. marcescens: Serratia marcescens
Outline: as §1

Aeromonas hydrophila = test: MIC against Gram-negative bacteria: Aeromonas hydrophila; conditions: 5×10^5 CFU/mL; for MIC against A. hydrophila: Aeromonas hydrophila
Outline: as §1

Proteus mirabilis = test: MIC against Gram-negative bacteria: Proteus mirabilis; conditions: 5×10^5 CFU/mL; for MIC against P. mirabilis: Proteus mirabilis
Outline: as §1

Citrobacter diversus = test: MIC against Gram-negative bacteria: Citrobacter diversus; conditions: 5×10^5 CFU/mL; for MIC against C. diversus: Citrobacter diversus
Outline: as §1

E. coli BL21 = test: MIC against Gram-negative bacteria: E. coli BL21; conditions: 5×10^5 CFU/mL
Outline: as §1

Proteus vulgaris = test: MIC against Gram-negative bacteria: Proteus vulgaris; conditions: 5×10^5 CFU/mL; for MIC against P. vulgaris: Proteus vulgaris
Outline: as §1

Klebsiella pneumonia = test: MIC against Gram-negative bacteria: Klebsiella pneumonia; conditions: 5×10^5 CFU/mL; for MIC against K. pneumonia: Klebsiella pneumonia
Outline: as §1

E. coli DH5α = test: Antibacterial activity: MIC and growth curve against E. coli DH5α in 96-well plate; conditions: minimal inhibitory concentration against E. coli DH5α; 96-well plate, 5×10^5 CFU/mL, 37° C., judged after 8 h
Outline: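 MIC taken as lowest protein level with no bacterial growth, tracked by A600 every 30 min during 37 °C, 175 rpm culture. Two-fold protein series 50-12.5 μg/mL final, triplicate wells, against 5×10^5 CFU/mL of LB-washed mid-log cells.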

Pseudomonas aeruginosa = test: MIC against Gram-negative bacteria: Pseudomonas aeruginosa; conditions: 5×10^5 CFU/mL; for MIC against P. aeruginosa: Pseudomonas aeruginosa
Outline: as §1

| Substance | MIC against M. catarrhalis (Moraxella catarrhalis; 96-well plate, 37° C., 10 h) [µg/mL] | MIC against E. cloacae (Enterobacter cloacae; 96-well plate, 37° C., 10 h) [µg/mL] | MIC against S. marcescens (Serratia marcescens; 96-well plate, 37° C., 10 h) [µg/mL] | MIC against A. hydrophila (Aeromonas hydrophila; 96-well plate, 37° C., 10 h) [µg/mL] | MIC against P. mirabilis (Proteus mirabilis; 96-well plate, 37° C., 10 h) [µg/mL] | MIC against C. diversus (Citrobacter diversus; 96-well plate, 37° C., 10 h) [µg/mL] | MIC against E. coli BL21 (E. coli BL21; 96-well plate, 37° C., 10 h) [µg/mL] | MIC against P. vulgaris (Proteus vulgaris; 96-well plate, 37° C., 10 h) [µg/mL] | MIC against K. pneumonia (Klebsiella pneumonia; 96-well plate, 37° C., 10 h) [µg/mL] | MIC (E. coli DH5α) [µg/mL] | MIC against P. aeruginosa (Pseudomonas aeruginosa; 96-well plate, 37° C., 10 h) [µg/mL] | MIC (μg/mL) M. catarrhalis (Moraxella catarrhalis; 10 h cultivation at 37° C.) [µg/mL] | MIC (μg/mL) E. cloacae (Enterobacter cloacae; 10 h cultivation at 37° C.) [µg/mL] | MIC (μg/mL) S. marcescens (Serratia marcescens; 10 h cultivation at 37° C.) [µg/mL] | MIC (μg/mL) A. hydrophila (Aeromonas hydrophila; 10 h cultivation at 37° C.) [µg/mL] | MIC (μg/mL) P. mirabilis (Proteus mirabilis; 10 h cultivation at 37° C.) [µg/mL] | MIC (μg/mL) C. diversus (Citrobacter diversus; 10 h cultivation at 37° C.) [µg/mL] | MIC (μg/mL) E. coli BL21 (E. coli BL21; 10 h cultivation at 37° C.) [µg/mL] | MIC (μg/mL) P. vulgaris (Proteus vulgaris; 10 h cultivation at 37° C.) [µg/mL] | MIC (μg/mL) K. pneumonia (Klebsiella pneumonia; 10 h cultivation at 37° C.) [µg/mL] | other results |
| --- | --- | --- | --- | --- | --- | --- | --- | --- | --- | --- | --- | --- | --- | --- | --- | --- | --- | --- | --- | --- | --- |
| PRT1233 (ISEPCPSYCSGHGDCISGVCFCDLGYTAAQGTCV; listed as Homo sapiens) | 50 | 12.5 | 25 | 50 | 25 | 12.5 | 12.5 | 12.5 | 50 | 25 | 25 | – | – | – | – | – | – | – | – | – | – |
| PRT152 (LPCPGGTERPCGGYGQCEGEGTRGGSGHCDCQAGYGGEACG; listed as Homo sapiens) | – | – | – | – | – | – | – | – | – | 12.5 | – | 12.5 | 12.5 | 12.5 | 12.5 | 25 | 25 | 12.5 | 12.5 | 12.5 | MIC (μg/mL) P. aeruginosa (Pseudomonas aeruginosa; 10 h cultivation at 37° C.): 12.5 µg/mL |
| PRT652 (DLDECAFPGVCPSGVCTNTAGSFSCKDCDGGYRPSPLGDSCE; listed as Homo sapiens) | – | – | – | – | – | – | – | – | – | 12.5 | – | – | – | – | – | – | – | – | – | – | MIC M. catarrhalis (Moraxella catarrhalis; 96-well plate, 37° C., 10 h): 25 µg/mL; MIC E. cloacae (Enterobacter cloacae; 96-well plate, 37° C., 10 h): 12.5 µg/mL; MIC S. marcescens (Serratia marcescens; 96-well plate, 37° C., 10 h): 50 µg/mL; MIC A. hydrophila (Aeromonas hydrophila; 96-well plate, 37° C., 10 h): 25 µg/mL; MIC P. mirabilis (Proteus mirabilis; 96-well plate, 37° C., 10 h): 12.5 µg/mL; MIC C. diversus (Citrobacter diversus; 96-well plate, 37° C., 10 h): 50 µg/mL; MIC E. coli BL21 (E. coli BL21; 96-well plate, 37° C., 10 h): 25 µg/mL; MIC P. vulgaris (Proteus vulgaris; 96-well plate, 37° C., 10 h): 25 µg/mL; MIC K. pneumonia (Klebsiella pneumonia; 96-well plate, 37° C., 10 h): 25 µg/mL; MIC P. aeruginosa (Pseudomonas aeruginosa; 96-well plate, 37° C., 10 h): 50 µg/mL |
| PRT183 (ECIPHNGCRHGTCSTPWQCTCDEGWGGLFCD; listed as Homo sapiens) | – | – | – | – | – | – | – | – | – | 12.5 | – | 25 | 12.5 | 12.5 | 25 | 12.5 | 12.5 | 12.5 | 25 | 25 | MIC (μg/mL) P. aeruginosa (Pseudomonas aeruginosa; 10 h cultivation at 37° C.): 12.5 µg/mL |
| PRT1449 (ACAPGHFGADCRLQCQCQNGGTCDRFSGCVCPSGWHGVHCE; listed as Homo sapiens) | – | – | – | – | – | – | – | – | – | 50 | – | – | – | – | – | – | – | – | – | – | MIC against M. catarrhalis (Moraxella catarrhalis; 10 h cultivation at 37° C.): 12.5 µg/mL; MIC against E. cloacae (Enterobacter cloacae; 10 h cultivation at 37° C.): 12.5 µg/mL; MIC against S. marcescens (Serratia marcescens; 10 h cultivation at 37° C.): 50 µg/mL; MIC against A. hydrophila (Aeromonas hydrophila; 10 h cultivation at 37° C.): 25 µg/mL; MIC against P. mirabilis (Proteus mirabilis; 10 h cultivation at 37° C.): 50 µg/mL; MIC against C. diversus (Citrobacter diversus; 10 h cultivation at 37° C.): 50 µg/mL; MIC against E. coli BL21 (E. coli BL21; 10 h cultivation at 37° C.): 25 µg/mL; MIC against P. vulgaris (Proteus vulgaris; 10 h cultivation at 37° C.): 12.5 µg/mL; MIC against K. pneumonia (Klebsiella pneumonia; 10 h cultivation at 37° C.): 50 µg/mL; MIC against P. aeruginosa (Pseudomonas aeruginosa; 10 h cultivation at 37° C.): 12.5 µg/mL |
| PRT1314 (ARNPCTDGHRGGCSEHANCLSTGLNTRRCECHAGYVGDGLQCL; listed as Homo sapiens) | 12.5 | 12.5 | 12.5 | 50 | 12.5 | 12.5 | 50 | 12.5 | 50 | 12.5 | 12.5 | – | – | – | – | – | – | – | – | – | – |
